According to ChEMBL document CHEMBL4354827, “Discovery of Novel, Potent, Brain-Permeable, and Orally Efficacious Positive Allosteric Modulator of α7 Nicotinic Acetylcholine Receptor [4-(5-(4-Chlorophenyl)-4-methyl-2-propionylthiophen-3-yl)benzenesulfonamide]: Structure-Activity Relationship and Preclinical Characterization” (J Med Chem, 2020):

Tests used:
[1] = Protein binding in mouse plasma assessed as unbound fraction at 5 uM incubated for 16 hrs under shaking condition by LC/MS/MS based rapid equilibrium dialysis method; format: ADME, cell-free
[2] = Cmax in Wistar rat plasma at 10 mg/kg, po after 1 to 144 hrs by LC-MS/MS analysis; format: ADME, organism-based; set-up: dose 10 mg/kg, route oral
[3] = Metabolic stability in human pooled liver microsomes assessed as compound remaining at 1 uM preincubated for 5 mins followed by NADPH addition and measured after 30 mins by LC-MS/MS analysis; format: ADME, Microsome; conditions: read-out: Stability
Rattus norvegicus [4] = assay: Improvement in social recognition scopolamine-induced Sprague-Dawley rat model of amnesia assessed as reduction in recognition index at 0.05 mg/kg, po for 7 days measured after 24 hrs (reference value: 0.93); format: functional
Rattus norvegicus [5] = assay: Memory enhancement effect in scopolamine-induced Wistar rat model of amnesia assessed as exploration time for familiar object in retention trial at 0.5 mg/kg, po for 7 days and measured on day 8 by novel object recognition test (reference value: 8.59 sec); format: functional
Rattus norvegicus [6] = assay: Memory enhancement effect in scopolamine-induced Wistar rat model of amnesia assessed as increase in discrimination index at 0.15 mg/kg, po for 7 days and measured on day 8 by novel object recognition test (reference value: 0.21); format: functional
Rattus norvegicus [7] = assay: Improvement in social recognition scopolamine-induced Sprague-Dawley rat model of amnesia assessed as increase in reduction in social investigation time at 0.15 mg/kg, po for 7 days measured after 24 hrs (Rvb =6.59%); format: functional; set-up: scale not given: the % may be the effect or the level left
[8] = Tmax in BALB/c mouse at 1 mg/kg, iv after 0.083 to 144 hrs by LC-MS/MS analysis; format: ADME, organism-based; conditions: in vivo
[9] = Half life in human at 7.5 to 50 mg administered for 14 days; format: ADME; conditions: in vivo
[10] = Drug level in scopolamine-induced Sprague-Dawley rat plasma at 0.05 mg/kg, po for 7 days; format: ADME, organism-based
[11] = AUCt in Wistar rat plasma at 10 mg/kg, po after 1 to 144 hrs by LC-MS/MS analysis; format: ADME, organism-based
[12] = Half life in Wistar rat at 1 mg/kg, iv after 0.083 to 144 hrs by LC-MS/MS analysis; format: ADME, organism-based; conditions: in vivo
[13] = Drug level in Wistar rat plasma at 0.5 mg/kg, po; format: ADME, organism-based; conditions: in vivo
Rattus norvegicus [14] = assay: Memory enhancement effect in scopolamine-induced Wistar rat model of amnesia assessed as exploration time for object1 in acquisition trial at 0.5 mg/kg, po administered as single dose and measured on day 8 by novel object recognition test (reference value: 16.11 sec); format: functional
[15] = Drug level in scopolamine-induced Sprague-Dawley rat plasma at 0.15 mg/kg, po for 7 days; format: ADME, organism-based
[16] = Tmax in Beagle dog at 10 mg/kg, po after 0.25 to 144 hrs by LC-MS/MS analysis; format: ADME, organism-based, Canis lupus familiaris; conditions: in vivo
[17] = AUC (0 to 144 hrs) in Wistar rat at 1 mg/kg, iv after 0.083 to 144 hrs by LC-MS/MS analysis; format: ADME, organism-based; set-up: time < 144 hr, dose 1 mg/kg, route intravenous; conditions: in vivo
[18] = Brain to plasma permeability coefficient, Kp in Wistar rat at 10 mg/kg, po after 8 hrs by LC-MS/MS analysis; format: ADME, organism-based
Rattus norvegicus [19] = assay: Improvement in social recognition scopolamine-induced Sprague-Dawley rat model of amnesia assessed as increase in reduction in social investigation time at 1 mg/kg, po administered as single dose prior to 1 hr training and measured after 30 mins (reference value: 9.81%); format: functional; set-up: scale not given: the % may be the effect or the level left
[20] = Drug metabolism in mouse liver microsomes assessed as metabolic rate at 1 uM preincubated for 5 mins followed by NADPH addition after 30 mins by LC-MS/MS analysis; format: ADME, Microsome; conditions: 0.5 h
[21] = Cmax in BALB/c mouse at 10 mg/kg, po after 0.25 to 144 hrs by LC-MS/MS analysis; format: ADME, organism-based; set-up: dose 10 mg/kg, route oral; conditions: in vivo
Rattus norvegicus [22] = assay: Memory enhancement effect in scopolamine-induced Wistar rat model of amnesia assessed as exploration time for object2 in acquisition trial at 0.50 mg/kg, po for 7 days and measured on day 8 by novel object recognition test (reference value: 15.63 sec); format: functional
[23] = Drug level in scopolamine-induced Sprague-Dawley rat brain at 0.15 mg/kg, po for 7 days; format: ADME, organism-based; conditions: read-out: Drug uptake
Rattus norvegicus [24] = assay: Memory enhancement effect in time-delay induced Wistar rat model of amnesia assessed as increase in novel object discrimination index at 1 mg/kg, po administered as single dose and measured on day 9 by novel object recognition test (reference value: 0.03); format: functional
[25] = Ratio of Cmax in brain to plasma in Wistar rat at 10 mg/kg, po after 144 hrs by LC-MS/MS analysis; format: ADME, organism-based
Rattus norvegicus [26] = assay: Memory enhancement effect in time-delay induced Wistar rat model of amnesia assessed as increase in discrimination index at 0.5 mg/kg, po for 7 days and measured on day 8 by novel object recognition test (reference value: 0.12); format: functional
[27] = Drug concentration in Wistar rat brain at 10 mg/kg, po after 4 hrs by LC-MS/MS analysis; format: ADME, organism-based; conditions: read-out: Drug uptake
[28] = Metabolic stability in monkey liver microsomes assessed as compound remaining at 1 uM preincubated for 5 mins followed by NADPH addition and measured after 30 mins by LC-MS/MS analysis; format: ADME, Macaca mulatta, Microsome; conditions: rhesus monkey, read-out: Stability
[29] = Brain to plasma permeability coefficient, Kp in Wistar rat at 10 mg/kg, po after 1 hr by LC-MS/MS analysis; format: ADME, organism-based
Rattus norvegicus [30] = assay: Improvement in social recognition time delay-induced Sprague-Dawley rat model of amnesia assessed as reduction in recognition index 3 mg/kg, po administered as single dose prior to 1 hr training and measured after 30 mins (reference value: 1); format: functional
Rattus norvegicus [31] = assay: Improvement in social recognition time delay-induced Sprague-Dawley rat model of amnesia assessed as increase in reduction in social investigation time at 0.15 mg/kg, po for 7 days and measured on day 9 (reference value: -0.5%); format: functional; set-up: scale not given: the % may be the effect or the level left
Rattus norvegicus [32] = assay: Improvement in social recognition scopolamine-induced Sprague-Dawley rat model of amnesia assessed as increase in reduction in social investigation time at 0.50 mg/kg, po for 7 days measured after 24 hrs (Rvb =6.59%); format: functional; set-up: scale not given: the % may be the effect or the level left
Rattus norvegicus [33] = assay: Memory enhancement effect in time-delay induced Wistar rat model of amnesia assessed as exploration time for object1 in acquisition trial at 3 mg/kg, po administered as single dose and measured on day 8 by novel object recognition test (reference value: 13.95 sec); format: functional
Rattus norvegicus [34] = assay: Memory enhancement effect in scopolamine-induced Wistar rat model of amnesia assessed as exploration time for familiar object in retention trial at 0.15 mg/kg, po for 7 days and measured on day 8 by novel object recognition test (reference value: 8.59 sec); format: functional
[35] = Half life in BALB/c mouse at 10 mg/kg, po after 0.25 to 144 hrs by LC-MS/MS analysis; format: ADME, organism-based; conditions: in vivo
Rattus norvegicus [36] = assay: Improvement in social recognition time delay-induced Sprague-Dawley rat model of amnesia assessed as reduction in recognition index at 0.05 mg/kg, po for 7 days and measured on day 9 (reference value: 1.05); format: functional
[37] = Drug metabolism in dog liver microsomes assessed as metabolic rate at 1 uM preincubated for 5 mins followed by NADPH addition after 30 mins by LC-MS/MS analysis; format: ADME, Canis lupus familiaris, Microsome; conditions: 0.5 h

CCC(=O)c1sc(-c2ccc(Cl)cc2)c(C)c1-c1ccc(S(N)(=O)=O)cc1
fraction unbound at 16 h, 5 µM [1]: 0.0116 | Cmax [2]: 900 nM | remaining at 0.5 h, 1 µM [3]: 90% | Activity_index (Rattus norvegicus [4]): 0.56 | Time (Rattus norvegicus [5]): 6.63 s | Activity_index (Rattus norvegicus [6]): 0.5 | Activity (Rattus norvegicus [7]): 55.83% | Tmax [8]: 4.8 min | half-life [9]: 48 to 80.9 h | concentration at 168 h [10]: 60 nM | AUC(0-t) [11]: 35 µM·h | half-life [12]: 45 h | concentration [13]: 270 nM | Time (Rattus norvegicus [14]): 13.94 s | concentration at 168 h [15]: 180 nM | Tmax [16]: 1.5 h | AUC(0-t) at 144 h [17]: 27 µM·h | Kp at 8 h [18]: 7.7 | Activity (Rattus norvegicus [19]): 48.49% | Drug metabolism [20]: 0.01 nmol/min/mg | Cmax [21]: 3400 nM | Time (Rattus norvegicus [22]): 16.55 s | concentration at 168 h [23]: 530 nM | Activity_index (Rattus norvegicus [24]): 0.44 | Kp at 144 h [25]: 10 | Activity_index (Rattus norvegicus [26]): 0.58 | concentration at 4 h [27]: 9220 nM | remaining at 0.5 h, 1 µM [28]: 79% | Kp at 1 h [29]: 4.63 | Activity_index (Rattus norvegicus [30]): 0.47 | Activity (Rattus norvegicus [31]): 43.63% | Activity (Rattus norvegicus [32]): 25.35% | Time (Rattus norvegicus [33]): 25.56 s | Time (Rattus norvegicus [34]): 4.86 s | half-life [35]: 22 h | Activity_index (Rattus norvegicus [36]): 0.81 | Drug metabolism [37]: 0.01 nmol/min/mg
